The assay concerns the target Sodium channel protein type 4 subunit alpha (Homo sapiens, UniProt P35499). In words: Inhibition of Nav1.4 ion channel assessed as reduction in cumulative sodium current.

The text below walks through data of ChEMBL document CHEMBL1137734, “2D- and 3D-QSAR of tocainide and mexiletine analogues acting as Na(v)1.4 channel blockers” (Eur J Med Chem, 2009).

pEC50: −log10 of the molar value.

Sequence of Sodium channel protein type 4 subunit alpha (P35499 whole entry): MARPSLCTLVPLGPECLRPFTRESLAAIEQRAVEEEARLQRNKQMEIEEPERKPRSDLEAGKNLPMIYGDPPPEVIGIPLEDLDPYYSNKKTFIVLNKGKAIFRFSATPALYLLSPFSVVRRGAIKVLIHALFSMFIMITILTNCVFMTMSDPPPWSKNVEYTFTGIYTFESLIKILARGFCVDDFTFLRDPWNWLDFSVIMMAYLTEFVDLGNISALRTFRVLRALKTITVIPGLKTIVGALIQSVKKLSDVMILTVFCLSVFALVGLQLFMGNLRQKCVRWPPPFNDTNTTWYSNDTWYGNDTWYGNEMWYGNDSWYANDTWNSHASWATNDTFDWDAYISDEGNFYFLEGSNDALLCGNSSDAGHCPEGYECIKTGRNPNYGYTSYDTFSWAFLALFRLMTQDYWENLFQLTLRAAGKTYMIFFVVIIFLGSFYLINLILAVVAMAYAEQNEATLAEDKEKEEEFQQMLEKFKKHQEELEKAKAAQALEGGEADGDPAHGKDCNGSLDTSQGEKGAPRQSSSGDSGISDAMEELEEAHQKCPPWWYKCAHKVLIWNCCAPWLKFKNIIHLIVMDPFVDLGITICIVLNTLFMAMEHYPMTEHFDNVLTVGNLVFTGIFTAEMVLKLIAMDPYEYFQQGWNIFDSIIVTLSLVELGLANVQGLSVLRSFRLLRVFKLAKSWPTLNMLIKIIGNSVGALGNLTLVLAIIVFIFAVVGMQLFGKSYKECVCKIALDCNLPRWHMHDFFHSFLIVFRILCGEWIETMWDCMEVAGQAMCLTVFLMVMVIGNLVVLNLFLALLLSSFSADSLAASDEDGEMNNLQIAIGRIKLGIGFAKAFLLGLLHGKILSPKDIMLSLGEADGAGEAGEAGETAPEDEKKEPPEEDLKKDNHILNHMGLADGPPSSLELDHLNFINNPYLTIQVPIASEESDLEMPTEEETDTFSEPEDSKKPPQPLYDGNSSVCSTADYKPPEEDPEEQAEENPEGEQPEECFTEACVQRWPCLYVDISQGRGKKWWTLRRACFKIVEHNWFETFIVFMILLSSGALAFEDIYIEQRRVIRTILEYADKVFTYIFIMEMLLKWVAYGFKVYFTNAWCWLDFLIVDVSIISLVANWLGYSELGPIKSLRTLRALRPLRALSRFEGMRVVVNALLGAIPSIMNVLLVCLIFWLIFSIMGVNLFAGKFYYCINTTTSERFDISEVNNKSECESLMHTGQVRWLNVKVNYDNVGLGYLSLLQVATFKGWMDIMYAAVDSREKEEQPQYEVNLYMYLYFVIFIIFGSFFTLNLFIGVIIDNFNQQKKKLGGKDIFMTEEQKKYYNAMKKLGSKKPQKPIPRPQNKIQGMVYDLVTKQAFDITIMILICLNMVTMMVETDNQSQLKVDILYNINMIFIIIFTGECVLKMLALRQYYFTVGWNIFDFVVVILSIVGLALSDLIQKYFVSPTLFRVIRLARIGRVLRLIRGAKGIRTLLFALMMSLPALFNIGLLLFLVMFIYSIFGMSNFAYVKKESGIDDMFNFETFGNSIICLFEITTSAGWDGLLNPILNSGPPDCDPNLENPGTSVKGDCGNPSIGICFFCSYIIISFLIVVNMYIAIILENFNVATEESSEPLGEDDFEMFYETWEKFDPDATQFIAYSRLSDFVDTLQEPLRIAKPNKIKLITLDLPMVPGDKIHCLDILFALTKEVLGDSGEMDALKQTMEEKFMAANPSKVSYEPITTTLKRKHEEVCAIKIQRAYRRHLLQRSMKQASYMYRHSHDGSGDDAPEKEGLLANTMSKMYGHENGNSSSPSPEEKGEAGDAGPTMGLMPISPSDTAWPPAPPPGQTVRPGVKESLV

As a reminder, the pEC50 is the EC50 on a negative log10 scale, so that one unit is a factor of ten. As for `Cc1cccc(C)c1NC(=O)[C@@H]1CCCN1`, the pEC50 is 4.39.
Under `Cc1cccc(C)c1OC[C@@H](C)N` [(R)-MEXILETINE] stands 4.64.
The figure for `Cc1cccc(C)c1NC(=O)[C@H](C)N` [S-TOCAINIDE] is 3.65; for `Cc1cccc(C)c1NC(=O)[C@H]1CCN(Cc2ccccc2)C1` it is 5.64.
Under `Cc1cccc(C)c1OC[C@H](C)CN` stands 4.63.
Take `Cc1cccc(C)c1NC(=O)[C@H]1CCCN1Cc1ccccc1`: the pEC50 is 4.50.
On to `Cc1cccc(C)c1NC(=O)[C@@H]1CCCN1Cc1ccccc1`, for which the pEC50 is 5.00.
The figure for `Cc1cccc(C)c1OC[C@H](N)C(C)C` is 5.24; for `Cc1cc(Cl)cc(C)c1OC[C@@H](C)CN` it is 5.54.
Under `Cc1cccc(C)c1SC[C@H](N)c1ccccc1` stands 5.15; under `Cc1cccc(C)c1SC[C@H](C)CN`, 5.57; under `Cc1cccc(C)c1N(C)C(=O)[C@@H]1CCCN1C`, 3.70.
Under `Cc1cc(Cl)cc(C)c1OC[C@H](C)CN` stands 5.43.
Take `Cc1cc(Cl)cc(C)c1OC[C@H](N)c1ccccc1`: the pEC50 was 4.71.
Under `N[C@@H](COc1ccccc1)c1ccccc1` stands 5.40; under `Cc1cccc(C)c1N(C)C(=O)[C@H]1CCCN1`, 3.66; under `Cc1cccc(C)c1N(C)C(=O)[C@@H]1CCCN1`, 4.17.
The figure for `Cc1cc(Cl)ccc1OC[C@@H](N)Cc1ccccc1` is 4.64; for `Cc1cccc(C)c1OC[C@H](N)Cc1ccccc1` it is 5.62.
The figure for `Cc1cccc(C)c1NC(=O)[C@H]1CCCN1C` is 4.17; for `Cc1cccc(C)c1NC(=O)[C@@H]1CCN(Cc2ccccc2)C1` it is 5.77; for `Cc1cccc(C)c1NC(=O)[C@H]1CCCN1` it is 4.92.
With `Cc1cccc(C)c1OC[C@@H](N)C(C)C` (racemic), the pEC50 was 5.24.
The figure for `Cc1cccc(C)c1NC(=O)[C@@H](C)N` [(R)-TOCAINIDE] is 3.56; for `Cc1cc(Cl)cc(C)c1OC[C@@H](N)c1ccccc1` it is 5.10.
Take `Cc1cccc(C)c1NC(=O)[C@H](C)NCc1ccccc1`: the pEC50 was 5.04.
For `Cc1cccc(C)c1OC[C@H](C)N` [(S)-MEXILETINE], the pEC50 is 4.57.
The figure for `Cc1cc(Cl)ccc1OC[C@H](N)c1ccccc1` is 4.82.
As for `N[C@H](COc1ccc(Cl)cc1)c1ccccc1`, the pEC50 was 5.52.
Under `Cc1cccc(C)c1N1CN2CCC[C@@H]2C1=O` stands 3.30; under `Cc1cccc(C)c1OC[C@H](N)c1ccccc1`, 5.52.
With `Cc1cccc(C)c1NC(=O)[C@@H]1CCCN1C`, the pEC50 was 4.55.
The figure for `Cc1cccc(C)c1SC[C@@H](N)c1ccccc1` is 5.33.
Under `Cc1cccc(C)c1SC[C@@H](C)CN` stands 5.72; under `Cc1cccc(C)c1OC[C@@H](C)CN`, 4.76; under `Cc1cccc(C)c1NC(=O)[C@@H](C)NCc1ccccc1`, 4.95.
Under `Cc1cccc(C)c1N(C)C(=O)[C@H]1CCCN1C` stands 3.30; under `N[C@H](COc1ccccc1)c1ccccc1`, 4.80.
Regarding `Cc1cccc(C)c1OC[C@@H](N)c1ccccc1`, the pEC50 is 5.52.
